{
  "source": "paper PMC6662706",
  "about": "“Short amylin receptor antagonist peptides improve memory deficits in Alzheimer’s disease mouse model” (Scientific Reports, 2019)",
  "key": {"[1]": {"design": "method as in PMID 29067318", "conditions": "mouse, not told; cited from earlier work"}, "[2]": {"system": "hippocampal LTP (CA1)", "assay": "Hippocampal long-term potentiation (LTP) in slices from wild type mice", "design": "species or system mouse", "conditions": "wild type mouse slices, 250 nM", "method": "We examined whether the peptide fragments were capable of influencing Aβ- or hAmylin-induced reduction of hippocampal LTP in mice. Exposure of hippocampal slices from wild-type mice to hAmylin (50 nM) or Aβ (50 nM) depressed LTP induced by a weak tetanization protocol at the CA1 region as previously reported[20],[30]. To determine whether peptides affected hAmylin or Aβ- induced depression of LTP, we applied 250 nM R5 or R14 continuously for 5 min prior to exposure of the hippocampal slices to 50 nM hAmylin or Aβ and the subsequent LTP induction. […] We therefore sought to determine whether peptide fragments were also capable of improving LTP levels in the same TgCRND8 AD mouse model. […] Importantly, doses of the short peptide fragments used in these experiments were equimolar to those used for AC253 and pramlintide in our previous studies[20],[30].\nFor electrophysiology experiment, hippocampal slices (400-μm thick) were prepared using a vibratome from wild type and TgCRND8 mice (8 month of age, male or female). For long-term potentiation (LTP) measurement, the stimulus strength was set to elicit 40–50% of the maximum fEPSP (field excitatory postsynaptic potential) amplitude and test pulses were delivered once every 30s. LTP was induced by 3-theta-burst stimulation protocol (each burst consisted of four pulses at 100 Hz with a 200-ms interburst interval). All drugs and chemicals were applied directly to the slice via bath perfusion.\nBrains were quickly removed from mice following decapitation, placed in a cold artificial cerebral spinal fluid (aCSF) on a vibratome chamber, and transverse sections cut through the hippocampus. The aCSF contained (in millimolar 124 NaCl, 3 KCl, 2.4 CaCl2, 2 MgCl2, 1.25 NaH2PO4, 26 NaHCO3, and 10 D-glucose and was equilibrated with 95 % O2 and 5 % CO2. Hippocampal slices (400-μm thick) were maintained in aCSF-filled holding chamber at room temperature for at least 1 h and individually transferred to the submerged glass bottom recording chamber, which was constantly perfused with aCSF (2 ml/min) at 30 °C. Field excitatory postsynaptic potential (fEPSP) was recorded with a metallic (Pt/Ir) electrode (FHC, Bowdoin, ME) from the stratum radiatum layer of Cornu ammonis 1 region of the hippocampus (CA1) area, and the Schaffer collateral afferents were stimulated with 100-μs test pulses via a bipolar cluster electrode (FHC). For long-term potentiation (LTP) experiments, the stimulus strength was set to elicit 40–50 % of the maximum fEPSP amplitude and test pulses were delivered to Schaffer collaterals once every 30 s. […] Before 3-TBS or drug application, the responses were monitored for at least 10 min to ensure a stable baseline of fEPSP. […]"}, "[3]": {"target": "T1, AMY3 receptor (CTR+RAMP3) expressed on HEK293 cells (HEK-AMY3) (Homo sapiens, UniProt O60896+P30988)", "T1 construct": "expressed in transfected cells", "T1 sequence (P30988 25-474)": "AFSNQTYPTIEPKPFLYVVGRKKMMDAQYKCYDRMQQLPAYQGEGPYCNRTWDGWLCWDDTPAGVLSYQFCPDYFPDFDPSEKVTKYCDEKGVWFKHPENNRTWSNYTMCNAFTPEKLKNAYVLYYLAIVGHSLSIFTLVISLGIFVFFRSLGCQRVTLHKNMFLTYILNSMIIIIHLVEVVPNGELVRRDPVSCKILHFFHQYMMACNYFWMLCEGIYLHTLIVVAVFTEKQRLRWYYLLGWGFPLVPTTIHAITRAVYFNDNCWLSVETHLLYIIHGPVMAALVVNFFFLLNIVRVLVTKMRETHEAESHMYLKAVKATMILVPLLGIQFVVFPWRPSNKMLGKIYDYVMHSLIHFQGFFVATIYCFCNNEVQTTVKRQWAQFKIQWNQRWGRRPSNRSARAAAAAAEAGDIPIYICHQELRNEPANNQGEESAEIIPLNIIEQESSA", "T1 sequence (O60896 24-148)": "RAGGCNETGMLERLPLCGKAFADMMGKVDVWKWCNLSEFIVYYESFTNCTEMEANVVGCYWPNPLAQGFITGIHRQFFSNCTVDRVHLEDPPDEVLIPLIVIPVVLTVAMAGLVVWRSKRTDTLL", "assay": "Peptide array-cell binding assay (SPOT cellulose membrane, GFP-labeled cells)", "conditions": "library R1-R14 on cellulose membrane, GFP-labeled HEK-AMY3 vs HEK-WT and HEK-CTR cells", "excerpt": "In order to identify shorter peptides with selective recognition and binding to amylin receptor, enhanced metabolic stability and brain penetrability than the linear full length peptide, we designed a peptide library comprised of 14 different sequences, namely, R1-R14. Fragments (R1−R13) are 12 amino acids in length and peptide R14 is 14 amino acids. The initial fragment comprised the first 12 amino acids from the N-terminus of AC253 sequence, and subsequent fragments derived from shifting one amino acid at a time, as depicted in Supplemental Fig. S1A. […] The relative binding affinities of peptide fragments were determined through measuring and plotting the net fluorescence intensity of the bound GFP labeled live cells on each spot as measured with a fluorescence Kodak imager (Supplemental Fig. S1C). […]\nTo screen peptide library for amylin receptor binding affinity, transfected GFP-positive Human Embryonic Kidney 293 cells that express AMY3 receptor (CTR+RAMP3) as previously reported was used ^8. […] The membrane was scanned at 465 nm excitation and 535 nm emission and the net fluorescence intensity of each peptide spot was quantified using Kodak IS2000MM Image station (GE Healthcare Systems/ART Inc). […]"}, "[4]": {"assay": "Brain uptake of R5 compared with davalintide, wild-type and het CTR mice", "type": "in vivo, mouse", "conditions": "Cy5.5 labeled, ip 0.1 mmole, intact brain imaged 2 h post-injection, wild-type and het CTR mice, n=5 per group", "method": "For peptide R5 brain uptake in comparison to Davlintide, wild-type littermate (C57BL/6 background) mice and heterozygous CTR knockdown mice (50% CTR expression level compared to wild type control mice and presumably with 50% AMY receptor expression level) was used (n=5 in each group). Mouse brains were extracted after 2h from a single injection and fluorescence in brains was quantified as mentioned above.\nSupplementary Figure S3: The comparison of brain permeability for R5 and Davalintide."}, "[5]": {"assay": "In vitro proteolytic stability in human serum", "type": "in vitro ADME", "conditions": "37°C, intact peptide at different time points estimated by RP-HPLC", "method": "Subsequently, we investigated the proteolytic stability of R5, and R14 compared to AC253. […] By assessing the main degradation fragments for both peptides using MALDI-TOF, we found both peptides to be cleaved at the basic arginine amino acids.\nSupplementary Figure S2: The comparison of bio-distribution for the fragments and their parent peptide. (A) Ex vivo fluorescence showing bio-distribution images for Cy5.5-R5, R14, AC253 in different organs at after a 2 h of a single ip injection of the peptides (0.1 mmol in 200µl saline). (B) Quantification of peptides fluorescence in each organ (n=3). (C) In vitro stability of R5, R14, and AC253 peptides in human serum compared with AC253 at 37°C. The amount of intact peptide in human serum at different time points was estimated using RP-HPLC."}, "[6]": {"assay": "Ex vivo NIR fluorescence brain imaging after ip injection (brain penetration)", "type": "in vivo, mouse", "conditions": "wild-type mice, 0, 0.6, 2, 10, 20 mg/kg single ip dose, 2 h, n = 3 per dose", "excerpt": "Blood brain barrier (BBB) penetration can limit the potential of long sequence peptides as therapeutic agents in central nervous system (CNS). Previously, we have reported that a cyclized form of AC253 peptide and to a lesser degree its linear form can both penetrate the BBB at therapeutically relevant levels, and are localized to the hippocampus and cortex, regions relevant to memory and learning processes. Therefore, we examined the ability of Cy5.5 labeled peptide fragments (R5, and R14) to penetrate BBB in wild-type mice using NIR fluorescence ex vivo brain imaging. Brain fluorescence resulting from either R5 or R14 was assessed against full length AC253 2 h after a single intraperitoneal (ip) injection of peptides. […] Fluorescence signals were distributed throughout the cortex, but particularly strong within the hippocampal regions, where a very high density of amylin receptor expression has been reported. […]\nIn vivo brain penetration and pharmacokinetics of the peptides were determined in 6-month-old male or female wild-type (C57BL/6 background) and heterozygous CTR mice (het-CTR). […]\nFor ex vivo imaging experiments and peptide brain uptake, we used age matched 6-month-old wild-type littermate (C57BL/6 background) mice. […] Region of interest was drawn around the brain region and analyzed using the Kodak ID 3.6 software and the mean fluorescence intensity was recorded. […]"}},
  "note": "Positions of bridges follow the written chain, without caps; N, C: chain ends. No end group written: not given here.",
  "data": [
    {"substance": "pramlintide: synthetic analog of amylin (KCNTATCATQRLANFLVHSSNNFGPILPPTNVGSNTY-NH2; disulfide 2-7; chains of the INN, looked up)", "values": [
      {"measurement": "brain permeability after systemic administration compared with cAC253 or R5", "setting": "[1]", "result": "lower brain permeability"}
    ]},
    {"substance": "LQTYPRTNTGSN [R11]", "values": [
      {"measurement": "effect of peptide alone on hippocampal LTP", "setting": "[2]", "result": "did not impair LTP"},
      {"measurement": "relative binding to HEK-AMY3 cells in library screening", "setting": "[3]", "result": "minimal binding"}
    ]},
    {"substance": "davalintide [reference compound]", "values": [
      {"measurement": "brain permeability, R5 versus davalintide", "setting": "[4]", "result": "lower brain permeability"}
    ]},
    {"substance": "LGRLSQELHRLQTY-NH2 [R14]", "values": [
      {"measurement": "half-life", "setting": "[5]", "result": 1.5, "unit": "h"},
      {"measurement": "accumulation in the brain at increasing dose", "setting": "[6]", "result": "dose-dependent"}
    ]}
  ]
}
